Test [1] has as its target T1, human soluble TNFR1 (sTNFR1) (Homo sapiens, UniProt P19438).
T1 construct: made in house; host or cells: Sf21 (baculovirus)
T1 sequence (P19438 with tags, fused parts or gaps): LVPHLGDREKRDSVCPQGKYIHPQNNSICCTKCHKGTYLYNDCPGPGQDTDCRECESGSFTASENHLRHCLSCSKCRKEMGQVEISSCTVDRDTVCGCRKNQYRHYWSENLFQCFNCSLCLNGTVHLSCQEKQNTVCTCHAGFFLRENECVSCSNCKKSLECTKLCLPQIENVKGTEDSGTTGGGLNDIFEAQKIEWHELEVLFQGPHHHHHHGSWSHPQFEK
In words: Human sTNFR1-peptide displacement assay (LanthaScreen Eu TR-FRET binding assay). Put shortly: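 Readout is the 665/615 nm TR-FRET ratio (Eu anti-His donor, streptavidin-Alexa647 acceptor), normalized to DMSO and saturating displacer, fit by Morrison-based five-parameter logistic for Kd^app. His-tagged sTNFR1 (1-211) prebound to 100 nM biotinylated peptide SEQ ID NO.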
On the technique in general: In TR-FRET formats the signal depends on donor and acceptor labels being close together.

The target of test [2] is T2, human TNFR1 extracellular domain (ECD) protein (Homo sapiens, UniProt P19438).
T2 construct: HRV 3C protease cleavage site (C); 6His (C, cleaved yes); made in house; host or cells: Sf21 insect cells (baculovirus), secreted
T2 sequence (P19438 30-211): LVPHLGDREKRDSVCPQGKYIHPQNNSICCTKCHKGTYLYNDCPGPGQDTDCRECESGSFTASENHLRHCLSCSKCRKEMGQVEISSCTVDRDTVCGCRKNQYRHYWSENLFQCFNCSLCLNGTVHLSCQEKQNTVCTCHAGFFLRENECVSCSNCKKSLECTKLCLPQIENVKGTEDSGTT
In words: SPR binding affinity to captured human TNFR1 ECD. Put shortly: (§1)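 SPR kinetics: peptides over captured avi-biotinylated receptor ECDs, TNFR1 for affinity, TNFR2 run in parallel for off-target binding. Running buffer HEPES pH 7.4 with 150 mM NaCl, 3 mM EDTA, 0.05% P20, 2% DMSO; surface regenerated between analytes. Affinity derived from kon/koff.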
For orientation: SPR reads the build-up and loss of mass on a sensor chip optically.

A further test has as its target T3, human TNFR2 ECD protein (Homo sapiens, UniProt P20333).
T3 construct: HRV 3C protease cleavage site (C); 6His (C, cleaved yes); made in house; host or cells: Sf21 insect cells (baculovirus), secreted
T3 sequence (P20333 23-257): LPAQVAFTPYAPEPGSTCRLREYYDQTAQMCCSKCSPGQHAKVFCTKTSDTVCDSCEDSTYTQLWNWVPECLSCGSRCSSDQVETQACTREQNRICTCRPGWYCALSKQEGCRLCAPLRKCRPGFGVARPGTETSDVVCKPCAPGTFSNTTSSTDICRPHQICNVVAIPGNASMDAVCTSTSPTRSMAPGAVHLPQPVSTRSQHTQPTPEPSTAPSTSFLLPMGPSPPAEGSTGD
Kind of test: SPR off-target binding (selectivity) to human TNFR2 ECD. Put shortly: as §1

Our source for the Kd values is patent US20240287138A1, “CYCLIC PEPTIDES FOR INHIBITING TNF RECEPTOR 1 ACTIVITY” (Merck Sharp & Dohme LLC, priority 2023, published 2024).

As usually defined, the pKd is the Kd on a negative log10 scale, so that one unit is a factor of ten.

pKd: −log10 of the molar value. Numbered stars: 1 amine (or outer) side, 2 acyl side, 3 side chain; on linkers, the order of the positions; unused ones are H or OH. Square brackets hold non-standard residues; d marks the D form. Peptide text beside a SMILES is read from it. * marks the point of attachment. Trp(βS-Me,7-OMe) = COc1cccc2c([C@H](C)[C@H](N)C(=O)O)c[nH]c12; dPro(trans-4-NMe3+) = C[N+](C)(C)[C@@H]1CN[C@@H](C(=O)O)C1; Trp(1-CH2COOH) = N[C@@H](Cc1cn(CC(=O)O)c2ccccc12)C(=O)O; Phe(4-SO2NH2) = N[C@@H](Cc1ccc(S(N)(=O)=O)cc1)C(=O)O; Trp(7-CN) = N#Cc1cccc2c(C[C@H](N)C(=O)O)c[nH]c12; Trp(7-Cl) = N[C@@H](Cc1c[nH]c2c(Cl)cccc12)C(=O)O; X27 = O=C(O)c1ccc(C[C@H](N[*:1])C(=O)[*:2])cc1F; Phe(3-CONH2) = NC(=O)c1cccc(C[C@H](N)C(=O)O)c1; Phe(3-COOH) = N[C@@H](Cc1cccc(C(=O)O)c1)C(=O)O; Phe(4-CONH2) = NC(=O)c1ccc(C[C@H](N)C(=O)O)cc1; Phe(4-COOH) = N[C@@H](Cc1ccc(C(=O)O)cc1)C(=O)O; X30 = O=C([C@@H](N[*:1])[C@H](O)c1ccncc1)[*:2]; 4Pal(3S-Me) = C[C@@H](c1ccncc1)[C@H](N)C(=O)O; Trp(7-aza) = N[C@@H](Cc1c[nH]c2ncccc12)C(=O)O; Pip(5R-OH) = O=C(O)[C@@H]1CC[C@@H](O)CN1; X1 = O=C([C@@H]1CC[C@H](N[*:1])C1)[*:2]; Gly(Nα-CH2CH2CONH2) = NC(=O)CCNCC(=O)O; Pip(4-aza) = O=C(O)[C@@H]1CNCCN1; 4Pal = N[C@@H](Cc1ccncc1)C(=O)O; dHyp = O=C(O)[C@H]1C[C@H](O)CN1; Cit = NC(=O)NCCC[C@H](N)C(=O)O; Ahp(2) = CCCCC[C@H](N)C(=O)O; αMeS = C[C@](N)(CO)C(=O)O; Carboxymethyl = O=C(O)C*; Nle = CCCC[C@H](N)C(=O)O; Sar = CNCC(=O)O

Take `CCCC[C@@H]1NC(=O)[C@@H]2CC[C@@H](C2)NC(=O)[C@H]([C@@H](C)c2c[nH]c3c(OC)cccc23)NC(=O)CN(C)C(=O)[C@H](Cc2ccc(C(=O)O)cc2)NC(=O)[C@H](Cc2ccc(S(N)(=O)=O)cc2)NC(=O)[C@](C)(CO)NC(=O)[C@H](Cc2c[nH]c3c(C#N)cccc23)NC(=O)[C@H](Cc2ccc(C(=O)O)cc2)NC(=O)[C@H](CC(N)=O)NC(=O)[C@H]2C[C@H](OCC(=O)O)CN2C(=O)[C@H](Cc2c[nH]c3ncccc23)NC(=O)[C@@H]2CC[C@@H](O)CN2C(=O)[C@H](Cc2ccncc2)NC1=O` [SEQ ID NO. 4] (cyclo([4Pal][Pip(5R-OH)][Trp(7-aza)][dHyp](Carboxymethyl)N[Phe(4-COOH)][Trp(7-CN)][αMeS][Phe(4-SO2NH2)][Phe(4-COOH)][Sar][Trp(βS-Me,7-OMe)][X1][Nle])): the pKd in test [1] was 10.05; in test [2], 10.00; on human TNFR2 ECD protein it was < 6.00.

On to `CCCC[C@@H]1NC(=O)[C@@H]2CC[C@@H](C2)NC(=O)[C@H]([C@@H](C)c2c[nH]c3c(OC)cccc23)NC(=O)CN(C)C(=O)[C@H](Cc2ccc(C(=O)O)cc2)NC(=O)[C@H](Cc2ccc(C(N)=O)cc2)NC(=O)[C@](C)(CO)NC(=O)[C@H](Cc2c[nH]c3c(C#N)cccc23)NC(=O)[C@H](Cc2ccc(C(=O)O)c(F)c2)NC(=O)[C@H](CC(N)=O)NC(=O)[C@H]2C[C@H](O)CN2C(=O)[C@H](Cc2c[nH]c3ncccc23)NC(=O)[C@@H]2CC[C@@H](O)CN2C(=O)[C@H](Cc2ccncc2)NC1=O` [SEQ ID NO. 8] (cyclo([4Pal][Pip(5R-OH)][Trp(7-aza)][dHyp]N[X27][Trp(7-CN)][αMeS][Phe(4-CONH2)][Phe(4-COOH)][Sar][Trp(βS-Me,7-OMe)][X1][Nle])), for which the pKd in test [1] is 10.00; in test [2], 10.10; on human TNFR2 ECD protein, < 6.00.

As for `CCCC[C@@H]1NC(=O)[C@@H]2CC[C@@H](C2)NC(=O)[C@H]([C@@H](C)c2c[nH]c3c(OC)cccc23)NC(=O)CN(C)C(=O)[C@H](Cc2ccc(C(N)=O)cc2)NC(=O)[C@H](Cc2ccc(S(N)(=O)=O)cc2)NC(=O)[C@](C)(CO)NC(=O)[C@H](Cc2c[nH]c3c(C#N)cccc23)NC(=O)[C@H](Cc2ccc(C(=O)O)cc2)NC(=O)[C@H](CC(N)=O)NC(=O)[C@H]2C[C@H]([N+](C)(C)C)CN2C(=O)[C@H](Cc2cn(CC(=O)O)c3ccccc23)NC(=O)[C@@H]2CC[C@@H](O)CN2C(=O)[C@H](Cc2ccncc2)NC1=O` [SEQ ID NO. 9] (cyclo([4Pal][Pip(5R-OH)][Trp(1-CH2COOH)][dPro(trans-4-NMe3+)]N[Phe(4-COOH)][Trp(7-CN)][αMeS][Phe(4-SO2NH2)][Phe(4-CONH2)][Sar][Trp(βS-Me,7-OMe)][X1][Nle])), the pKd in test [1] is 10.30; in test [2] it was 10.00; at human TNFR2 ECD protein, < 6.00.

`CCCCC[C@@H]1NC(=O)[C@@H]2CC[C@@H](C2)NC(=O)[C@H]([C@@H](C)c2c[nH]c3c(OC)cccc23)NC(=O)CN(C)C(=O)[C@H](Cc2cccc(C(N)=O)c2)NC(=O)[C@H](Cc2ccc(C(N)=O)cc2)NC(=O)[C@](C)(CO)NC(=O)[C@H](Cc2c[nH]c3c(C#N)cccc23)NC(=O)[C@H](Cc2ccc(C(=O)O)cc2)NC(=O)[C@H](CC(N)=O)NC(=O)CN(CCC(N)=O)C(=O)[C@H](Cc2c[nH]c3ccccc23)NC(=O)[C@@H]2CNCCN2C(=O)[C@H](Cc2ccncc2)NC1=O` [SEQ ID NO. 10] (cyclo([4Pal][Pip(4-aza)]W[Gly(Nα-CH2CH2CONH2)]N[Phe(4-COOH)][Trp(7-CN)][αMeS][Phe(4-CONH2)][Phe(3-CONH2)][Sar][Trp(βS-Me,7-OMe)][X1][Ahp(2)])): the pKd is 10.00 in test [1], 10.10 in test [2] and < 6.00 at human TNFR2 ECD protein.

Take `CCCC[C@@H]1NC(=O)[C@@H]2CC[C@@H](C2)NC(=O)[C@H]([C@@H](C)c2c[nH]c3c(OC)cccc23)NC(=O)CN(C)C(=O)[C@H](Cc2ccc(C(N)=O)cc2)NC(=O)[C@H](Cc2ccc(C(N)=O)cc2)NC(=O)[C@](C)(CO)NC(=O)[C@H](Cc2c[nH]c3c(C#N)cccc23)NC(=O)[C@H](Cc2ccc(C(=O)O)cc2)NC(=O)[C@H](CC(N)=O)NC(=O)[C@H]2C[C@H](OC)CN2C(=O)[C@H](Cc2c[nH]c3ccccc23)NC(=O)[C@@H]2CC[C@@H](O)CN2C(=O)[C@H](Cc2ccncc2)NC1=O` [SEQ ID NO. 14] (cyclo([4Pal][Pip(5R-OH)]W[dHyp](Me)N[Phe(4-COOH)][Trp(7-CN)][αMeS][Phe(4-CONH2)][Phe(4-CONH2)][Sar][Trp(βS-Me,7-OMe)][X1][Nle])): the pKd in test [1] is 10.52; in test [2], 10.70; at human TNFR2 ECD protein it was < 6.00.

For `CCCCC[C@@H]1NC(=O)[C@@H]2CC[C@@H](C2)NC(=O)[C@H]([C@@H](C)c2c[nH]c3c(OC)cccc23)NC(=O)CN(C)C(=O)[C@H](Cc2ccc(C(N)=O)cc2)NC(=O)[C@H](Cc2ccc(C(N)=O)cc2)NC(=O)[C@](C)(CO)NC(=O)[C@H](Cc2c[nH]c3c(C#N)cccc23)NC(=O)[C@H](Cc2ccc(C(=O)O)cc2)NC(=O)[C@H](CC(N)=O)NC(=O)[C@H]2C[C@H](O)CN2C(=O)[C@H](Cc2c[nH]c3ccccc23)NC(=O)[C@H](CO)NC(=O)[C@H]([C@H](O)c2ccncc2)NC1=O` [SEQ ID NO. 16] (cyclo([Ahp(2)][X30]SW[dHyp]N[Phe(4-COOH)][Trp(7-CN)][αMeS][Phe(4-CONH2)][Phe(4-CONH2)][Sar][Trp(βS-Me,7-OMe)][X1])), the negative logarithm of the Kd (pKd) in test [1] was 9.96; in test [2] it was 10.05; at human TNFR2 ECD protein it was < 6.00.

In the case of `CCCC[C@@H]1NC(=O)[C@@H]2CC[C@@H](C2)NC(=O)[C@H]([C@@H](C)c2c[nH]c3c(OC)cccc23)NC(=O)CN(C)C(=O)[C@H](Cc2cccc(C(=O)O)c2)NC(=O)[C@H](Cc2ccc(C(N)=O)cc2)NC(=O)[C@](C)(CO)NC(=O)[C@H](Cc2c[nH]c3c(Cl)cccc23)NC(=O)[C@H](Cc2ccc(C(=O)O)cc2)NC(=O)[C@H](CC(N)=O)NC(=O)[C@H]2C[C@H](O)CN2C(=O)[C@H](Cc2c[nH]c3ccccc23)NC(=O)[C@@H]2CC[C@@H](O)CN2C(=O)[C@H](Cc2ccncc2)NC1=O` [SEQ ID NO. 17] (cyclo([4Pal][Pip(5R-OH)]W[dHyp]N[Phe(4-COOH)][Trp(7-Cl)][αMeS][Phe(4-CONH2)][Phe(3-COOH)][Sar][Trp(βS-Me,7-OMe)][X1][Nle])), the pKd was 9.80 in test [1], 10.40 in test [2] and < 6.00 on human TNFR2 ECD protein.

In the case of `CCCCC[C@@H]1NC(=O)[C@@H]2CC[C@@H](C2)NC(=O)[C@H]([C@@H](C)c2c[nH]c3c(OC)cccc23)NC(=O)CN(C)C(=O)[C@H](Cc2ccc(C(N)=O)cc2)NC(=O)[C@H](Cc2ccc(C(N)=O)cc2)NC(=O)[C@](C)(CO)NC(=O)[C@H](Cc2c[nH]c3c(C#N)cccc23)NC(=O)[C@H](Cc2ccc(C(=O)O)cc2)NC(=O)[C@H](CC(N)=O)NC(=O)[C@H]2C[C@H](O)CN2C(=O)[C@H](Cc2c[nH]c3ccccc23)NC(=O)[C@H](CCCNC(N)=O)NC(=O)[C@H]([C@@H](C)c2ccncc2)NC1=O` [SEQ ID NO. 110] (cyclo([Ahp(2)][4Pal(3S-Me)][Cit]W[dHyp]N[Phe(4-COOH)][Trp(7-CN)][αMeS][Phe(4-CONH2)][Phe(4-CONH2)][Sar][Trp(βS-Me,7-OMe)][X1])), the pKd in test [1] and in test [2] was 9.85 in each case.
